According to patent publication US12653808B2, “Compounds for treating multiple myeloma” (Purdue Pharma L.P., priority 2018, dated 2026):
Where “and” joins values, the source holds several entries; their conditions need not be identical. Equal entries are not always repeated.

Key:
[1] = test system: patients with relapsed/refractory hematologic malignancies; test: Phase 1 dose escalation trial: safety, treatment-emergent adverse events, DLT/MTD (NCI CTCAE v4.03); format: in vivo, human; details: for recommended starting dose, relapse refractory multiple myeloma: 60 minutes infusion, day 1 and day 15 of 28-day cycle
Procedure: A phase 1 trial was carried out including a dose escalation study to investigate the safety, pharmacokinetic (PK) profiles and efficacy of tinostamustine (EDO-S101) in relapsed/refractory hematologic malignancies.
The patient had relapsed/refractory hematologic malignancies for which there are no available therapies.
The assessment of dose-limiting toxicities (DLTs) was based on cycle 1 events alone. Toxicities were assessed regarding type and severity using the National Cancer Institute (NCI) Common Terminology Criteria for Adverse Events (CTCAE) version 4.03, June 2010. Toxicity data were collected for all patients throughout their time on study. Infusion site reactions were assessed using the Phlebitis Scale developed by the Infusion Nurses Society (2011).
DLTs, which were at least possibly related to study drug, were defined as: • Any Grade 3 or 4 non-hematologic toxicity (excluding alopecia and easily correctable electrolyte abnormalities); • Nausea, vomiting or diarrhoea that persists beyond 10 days despite aggressive symptomatic treatment; • Grade 4 neutropenia or thrombocytopenia lasting for 7 days or more; • Any grade 2 or more toxicity, but persist for over 3 weeks; and • Any toxicity resulting in a delay of the next dose administration (cycle 2 day 1≥14).
To ensure patients' safety, the stopping rules were implemented to the dose escalation stage of the study.
(§1) Other safety assessments included physical examinations, Eastern Cooperative Oncology Group (ECOG) performance status determinations, electrocardiograms (ECGs), pregnancy testing for women of childbearing potential, documentation of treatment-emergent adverse events (TEAEs), clinical laboratory evaluations including haematology, blood chemistry and urinalysis, vital signs, and documentation of concomitant medication usage.
If there is no DLT observed in any of these subjects, the trial proceeds to enroll additional subjects into the next higher dose cohort. If one subject develops a DLT at a specific dose, an additional three subjects are enrolled into that same dose cohort.

[2] = PK assessment: plasma concentrations of tinostamustine and metabolites M2 and M8, cycle 1 day one; format: in vivo, human
Procedure: Plasma samples were collected to determine the concentrations of tinostamustine and its metabolites (labelled M2 and M8) by a method fully validated according to the relevant guidelines. The PK profiles of tinostamustine in plasma were assessed in each patient in the escalation stage of the study, in cycle 1 only.
Patients of all cohorts and over all dose levels were sampled according to the following schedule: 0.5 hours prior to dose administration, and at 15, 30 and 45 minutes and 1, 1.25, 1.50, 2, 3, 8, 24, 48 and 72 hours from the start of tinostamustine infusion. Plasma samples were collected according to the Laboratory Manual for the determination of tinostamustine and metabolites M2 and M8 concentrations using a method fully validated according to the relevant guidelines.

[3] = Compartmental population PK analysis of tinostamustine; format: in vivo, human; details: dose range 20 to 120 mg/m^2, infusion times 30 to 60 minutes
Procedure: A compartmental population PK analysis of tinostamustine was conducted to characterize its concentration-time profiles and its dependency on patient factors. For the analysis, the 24 hours plasma concentrations of tinostamustine at day one from 36 patients was used from whom the data was available. The concentration-time profiles were best described with a two-compartmental model with first order clearance from the central compartment.

[4] = test system: relapsed/refractory hematologic malignancies; test: Tumour assessment: response to treatment, all HM; format: in vivo, human; details: all 46 patients
Description: (§2) Response to treatment included evaluation of overall response rate (patients with a CR plus patients with a PR), clinical benefit (CB) rate (patients with CR plus patients with PR plus patients with stable disease (SD)), progression free survival, and overall survival according to the relevant response criteria.

[5] = test system: lymphoma (Hodgkin and non-Hodgkin); test: Tumour assessment: response to treatment, patients with lymphoma; format: in vivo, human; details: 27 patients with lymphoma
Description: as §2

multiple myeloma [6] = test: Tumour assessment: response to treatment, patients with multiple myeloma; format: in vivo, human; details: 19 patients with MM
Description: as §2

[7] = test system: patients with relapsed/refractory hematologic malignancies; test: Cardiac safety: electrocardiograms and cardiac disorders; format: in vivo, human
Description: as §1

[8] = test system: patients with relapsed/refractory hematologic malignancies; test: Biochemistry: clinical chemistry abnormalities and TEAEs; format: in vivo, human
Description: as §1

multiple myeloma [9] = details: López-Iglesias et al, J Hematol Oncol 2017, 10, 127; cited from earlier work
[10] = all cohorts administered over 30 or 45 minutes
[11] = doses of 20 to 80 mg/m^2, 60 min cohorts
[12] = doses of 100 or 120 mg/m^2, 60 min cohorts

SMILES: Cn1c(CCCCCCC(=O)NO)nc2cc(N(CCCl)CCCl)ccc21 [tinostamustine]
- patients with Grade 3 and 4 thrombocytopenia in C2 and C3 leading to withdrawal ([1]; 100 mg/m^2 over 60 minutes): three patients
- DLT ([1]; 120 mg/m^2, lymphoma cohort): Thrombocytopenia
- serious thrombocytopenia (grade 3), also led to study discontinuation ([1]; HM120/60 cohort patient, of all patients): 2%
- TEAE with outcome of death ([1]; Patients (N = 46), number (percent)): 0 (0)
- leukopenia, incidence ([1]; administered over 30 or 45 minutes): 16%
- leukopenia, incidence ([1]; administered over 60 minutes): 27%
- thrombocytopenia, incidence ([1]; administered over 60 minutes): 58%
- SAE dyspnea, hypersensitivity, osteomyelitis, pleural effusion, pneumonia, and thrombocytopenia (each) ([1]; all 46 patients): 2%
- SAE febrile neutropenia and sepsis (each) ([1]; all 46 patients): 2%
- all other TEAEs, incidence ([1]; all 46 patients): < 20%
- discontinuation because of adverse events (AE) ([1]; all 46 patients): 29%
- grade 3/4 anemia, incidence ([1]; all 46 patients): 22%
- grade 3/4 leukopenia/WBC decreased, incidence ([1]; all 46 patients): 15% and 16%
- grade 3/4 lymphopenia, incidence ([1]; all 46 patients): 8.6%
- grade 3/4 neutropenia/neutrophil count decreased, incidence ([1]; all 46 patients): 29%
- grade 3/4 thrombocytopenia, incidence ([1]; all 46 patients): 39% and 40%
- nausea, incidence ([1]; all 46 patients): 29%
- other TEAEs leading to study drug discontinuation (anaphylactic reaction, febrile neutropenia, hypersensitivity, pleural effusion, pruritus; each) ([1]; all 46 patients): 2%
- patients with at least one TEAE considered study drug-related ([1]; all 46 patients): 38 patients
- anaemia, incidence ([1]; all 46 patients, any grade): 39%
- leukopenia/WBC decreased, incidence ([1]; all 46 patients, any grade): 21% and 22%
- neutropenia/neutrophil count decreased, incidence ([1]; all 46 patients, any grade): 29% and 28%
- thrombocytopenia/platelet count decreased, incidence ([1]; all 46 patients, any grade): 52%
- anaemia, incidence [1, 10]: 37%
- thrombocytopenia, incidence [1, 10]: 47%
- recommended starting dose, relapse refractory multiple myeloma ([1]; baseline platelet count 100×10^9/L): 50 mg/m^2
- recommended starting dose, relapse refractory multiple myeloma ([1]; baseline platelet count >100×10^9/L): 60 mg/m^2
- grade 3 or 4 anaemia, incidence ([1]; doses of 20 to 80 mg/m^2): 8%
- anaemia, incidence [1, 11]: 25%
- grade 3/4 thrombocytopenia, incidence [1, 11]: 8%
- leukopenia, incidence [1, 11]: 17%
- neutropenia, incidence [1, 11]: 25%
- grade 3 or 4 anaemia, incidence ([1]; doses of 100 or 120 mg/m^2): 36%
- anaemia, incidence [1, 12]: 64%
- grade 3/4 thrombocytopenia, incidence [1, 12]: 71%
- leukopenia, incidence [1, 12]: 36%
- neutropenia, incidence [1, 12]: 50%
- patients who experienced DLTs ([1]; lymphoma cohort, 120 mg/m^2 over 1 hour): Two out of six
- neutropenia, incidence ([1]; shorter infusion times): 16%
- Cmax Mean (SD) ([2]; dose 60 mg/m^2, infusion time 30 minutes): 1724 (1416) ng/mL
- AUC Mean (SD) ([2]; dose 80 mg/m^2, infusion time 60 minutes): 902 (653) h · ng/mL
- AUC Mean (SD) ([2]; dose 120 mg/m^2, infusion time 60 minutes): 1638 (578) h · ng/mL
- dose linearity of PK [3]: dose-linear
- best response PD [4]: 41%
- best response PD [5]: 37%
- best response PD (multiple myeloma [6]): 47%
- treatment-emergent ECG abnormality indicated to be clinically significant ([7]; all patients): No patient
- treatment-emergent QTcF interval >500 msec ([7]; all patients): One patient
- prolonged QTcF interval ([7]; one subject, MM 80/45 cohort, discontinuation visit three weeks after only dose, screening QTcF 423 msec): 677 ms
- cardiac disorder considered study drug-related (grade 1 palpitations) ([7]; overall): 2%
- C-reactive protein increased TEAE ([8]; all patients): 4%
- blood creatinine increased TEAE ([8]; all patients): 9%
- blood potassium decreased/hypokalemia TEAE ([8]; all patients): 11%
- grade 3 hyperuricemia TEAE ([8]; considered unrelated to study drug): 2%
- treatment-emergent shift to grade 3 aspartate aminotransferase increased and grade 3 hypoalbuminemia (each) ([8]; patients with normal or grade 1 or 2 values at baseline): 2%
- activity in in vitro and in vivo models against multiple myeloma (multiple myeloma [9]): potent activity
